Results as given in patent publication US20200023001A1, “GlycoFix (Structurally And Functionally Repaired Endothelial Glycocalyx)” (Northeastern University, priority 2018, published 2020).
Where “and” joins values, the source holds several entries; their conditions need not be identical. Identical values can stand only once.

System: HS component of RFPEC glycocalyx
Test: HS component thickness and coverage by 10E4 HS immunofluorescence (Example 2)
Format: cell-based, rat
Protocol: RFPEC Culture. A rat fat pad endothelial cell (RFPEC) line^37 was utilized, originally isolated from rat epididymal fat pads by Dr. Mia Thi of Albert Einstein College of Medicine (Bronx, N.Y., USA). RFPECs were selected for their ability to naturally express a robust glycocalyx.^38 These ECs were cultured in tissue culture flasks at 37° C. and 5% CO2 in a humidified environment with Dulbecco's Modified Eagle's Medium (DMEM) supplemented with 10% fetal bovine serum (FBS) and 1% penicillin-streptomycin, all purchased from Thermo Fisher Scientific (Waltham, Mass., USA). For 3-(4,5-dimethylthiazol-2-yl)-5-(3-carboxymethoxyphenyl)-2-(4-sulfophenyl)-2H-tetrazolium (MTS) assays (Sigma-Aldrich Co., St Louis, Mo., USA), RFPECs were seeded at 3.7×10^4 cells/cm^2 in tissue culture-treated, 96-well plates (Falcon; Thermo Fisher Scientific) and imaged on a SpectraMax M3 plate reader to show cell viability and metabolic activity. For confocal imaging, RFPECs were seeded onto 12-mm diameter round glass cover slips (Thermo Fisher Scientific) at 1×10^4 cells/cm^2 in tissue culture-treated six-well plates (Falcon; Thermo Fisher Scientific). In both cases, the cells were allowed to grow for 48-60 hours to full confluence before starting the experiment.
RFPEC glycocalyx treatments. For control glycocalyx conditions, RFPEC cultures were grown in DMEM with 10% FBS and 1% penicillin-streptomycin. To generate dysfunctional glycocalyx conditions, the regular culture media of other RFPEC cultures was replaced with two variations of the modified media. For the collapsed glycocalyx configuration, the cells were grown in low serum media that consisted of DMEM with 1% penicillin-streptomycin and only 2% FBS.^1 For the degraded glycocalyx configuration, cultures were pretreated with DMEM/10^% FBS/1% penicillin-streptomycin containing a 2.5×10^−6 IU heparinase III (Hep III) (IBEX Pharmaceutical, Montreal, QC, Canada) enzyme for 2 hours, selectively degrading the HS glycosaminoglycans of the glycocalyx. To simulate a repaired glycocalyx state, the media containing Hep III was replaced with exogenous HS (Celsus Laboratories, Cincinnati, Ohio, USA) dissolved in DMEM/10% FBS/1% penicillin-streptomycin at 59 μg/mL. All RFPEC cultures, including those with untreated, collapsed, degraded, or repaired glycocalyx configurations, were exposed to 550 μg/mL of lyophilized and ultraviolet-sterilized PEG-AuNP during the 16-hour treatment time. Afterward, the free-floating particles were gently washed out before fixation to ensure that only the AuNP entrapped within the glycocalyx would be imaged. The red fluorescence detected from conjugated Alexa Fluor 647 was attributed to AuNP within the RFPEC monolayers (details are given in the “Confocal imaging and analysis” section).
Immunostaining. […]

[1] = RFPEC, Hep III 2 h then 16 h, with or without 59 μg/mL HS

heparan sulfate [HS]
HS coverage of RFPEC, result in words (FIG. 10F legend): recovered
HS coverage as % of the baseline measurements (Hep III, Hep III + 59 μg/mL HS): 44%
HS component thickness [1]: 1.2 μm and 1.21±0.31 μm
HS coverage of RFPEC surface [1]: 33.1%+3.7%
